The source of these data is PubChem BioAssay AID1645866 (Buhrlage Lab, Dana-Farber Cancer Institute and Novartis …, 2021).

In this experiment the target is Ubiquitin carboxyl-terminal hydrolase 28 (Homo sapiens) (UniProt Q96RU2). Put plainly: Ubiquitin-specific peptidase 28 DUB inhibitors, biochemical concentration-dependence assay, validation of primary screening hits (AID 1645866). As to conditions: purified USP28, ubiquitin-rhodamine fluorescence, 30 min.

pIC50: −log10 of the molar value. Calls of active or inactive are those of the source.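 Rule for the calls: active = in confirmatory dose-response testing, peak deubiquitinase inhibition of 30% or more; inactive = the rest.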

Sequence of Ubiquitin carboxyl-terminal hydrolase 28 (Homo sapiens) (Q96RU2 whole entry, looked up): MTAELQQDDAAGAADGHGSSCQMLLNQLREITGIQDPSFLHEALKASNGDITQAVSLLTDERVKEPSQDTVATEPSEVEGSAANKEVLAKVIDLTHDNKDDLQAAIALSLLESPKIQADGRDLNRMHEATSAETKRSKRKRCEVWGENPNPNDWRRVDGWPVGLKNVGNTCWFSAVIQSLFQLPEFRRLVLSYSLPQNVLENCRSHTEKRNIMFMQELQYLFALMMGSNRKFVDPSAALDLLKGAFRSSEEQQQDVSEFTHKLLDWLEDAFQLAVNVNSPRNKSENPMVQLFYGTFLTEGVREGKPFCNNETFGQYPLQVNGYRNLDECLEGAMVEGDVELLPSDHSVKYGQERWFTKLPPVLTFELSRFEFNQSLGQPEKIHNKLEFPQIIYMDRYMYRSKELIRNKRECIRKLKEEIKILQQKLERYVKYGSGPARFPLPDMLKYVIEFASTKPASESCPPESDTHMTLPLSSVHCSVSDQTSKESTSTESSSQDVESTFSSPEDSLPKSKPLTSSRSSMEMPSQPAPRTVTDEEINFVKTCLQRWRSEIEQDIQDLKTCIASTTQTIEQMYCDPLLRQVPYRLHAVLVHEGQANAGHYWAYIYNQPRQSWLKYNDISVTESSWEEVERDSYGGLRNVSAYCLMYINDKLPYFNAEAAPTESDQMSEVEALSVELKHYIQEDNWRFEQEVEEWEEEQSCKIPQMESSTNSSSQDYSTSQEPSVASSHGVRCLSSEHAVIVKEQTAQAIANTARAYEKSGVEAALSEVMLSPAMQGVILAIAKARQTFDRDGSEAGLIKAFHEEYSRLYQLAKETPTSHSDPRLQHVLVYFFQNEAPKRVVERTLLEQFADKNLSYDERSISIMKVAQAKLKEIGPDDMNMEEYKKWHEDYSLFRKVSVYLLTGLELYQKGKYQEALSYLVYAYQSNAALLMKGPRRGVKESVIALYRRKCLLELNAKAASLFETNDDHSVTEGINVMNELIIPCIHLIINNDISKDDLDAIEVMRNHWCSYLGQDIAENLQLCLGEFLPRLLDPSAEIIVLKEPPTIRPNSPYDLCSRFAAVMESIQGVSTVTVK

As a reminder, the pIC50 is −log10 of the IC50, conventionally taken in molar units. With `O=C(Nc1ccccc1Cl)N(Cc1cc2cc3c(cc2[nH]c1=O)OCCO3)C1CCCCC1`, the pIC50 was 4.31.
`O=C(Nc1cccc(Br)c1)c1cc(-c2cccnc2)n[nH]1`: the pIC50 was 5.67.
A word on the IC50: it is the concentration that gives 50% inhibition. Take `CCc1ccc(OCc2nnc(SCC(=O)Nc3ccccc3OC)n2Cc2ccccc2)cc1`: the IC50 was > 50 µM (inactive).
As for `Cc1cccc(NC(=O)CSc2ncnc3c2sc2nc(CC(C)C)c4c(c23)CCC4)c1`, the pIC50 was 5.19.
`C[C@H](NC(=O)Cc1ccccc1F)c1nc2cc(-c3ccccc3F)ncn2n1`: the IC50 is > 50 µM (inactive).
Take `Cc1cc(C(=O)Nc2cc(C)n(Cc3ccc(Cl)cc3)n2)no1`: the pIC50 is 4.87.
Still for that read-out and setting: the same measure for `O=C(Nc1cccc(-c2nc3ccccc3[nH]2)c1)c1cc2ccccc2oc1=O`: 5.66.
As to `O=C(CC1C(=O)N(Cc2cccnc2)c2nc3ccccc3n21)Nc1cccc2ccccc12` (configuration not stated), the IC50 is > 50 µM (inactive).
The same measure, in the same setting: the result for `Cc1cnc(CN2CCCC(c3ccc4cn[nH]c4n3)C2)cn1` (configuration not stated) reads > 50 µM (inactive).
Regarding `CCCc1nc2sc3c(NCCN4CCOCC4)ncnc3c2c2c1CCC2`, the pIC50 is 6.23.
The same measure, in the same setting: the result for `COc1ccccc1-c1nc2c3c(ncn2n1)Oc1c(c(C)nn1-c1ccccc1)C3c1cccnc1` (configuration not stated) reads 4.39; that for `Cc1cccc(OCCn2c(CCNC(=O)C3CCCCC3)nc3ccccc32)c1`, 4.67; that for `Cc1ccc2cc(CCNC(=O)c3cccc(Br)c3)c(=O)[nH]c2c1`, 4.43.
On the same count and under the same terms, the same measure for `Cc1nc2sc(C(=O)Nc3ccccc3Br)c(N)c2c(C)c1C`: 5.70.
With `O=C(Nc1cccc(C(F)(F)F)c1)N1CCCn2c(nc3ccccc32)C1`, the pIC50 was 4.69.
As for `N#Cc1c(-c2cccs2)cc(-c2cccs2)[nH]c1=O`, the IC50 was > 50 µM (inactive).
Regarding `Cc1ccc(C(=O)Nc2nc3n(n2)C(c2ccccc2)CC(=O)N3)cc1` (configuration not stated), the pIC50 is 4.71.
On the same count and under the same terms, the result for `COc1cc(-c2nc(C(N)=O)c3[nH]c(=O)n(-c4ccc(C)cc4)c3n2)cc(OC)c1OC` reads 5.76; that for `O=C(NCc1ccc(Br)cc1)c1ccc(-c2cccnc2)nc1`, 4.66; that for `CC(C)NS(=O)(=O)c1ccc(CCC(=O)Nc2ccc3c(c2)OCCO3)cc1`, 5.95.
Consider `O=C1NC(=O)/C(=C/c2ccc(OC(=O)c3ccc(Cl)cc3Cl)cc2)N1`, for which the pIC50 is 5.35.
For the molecule `c1ccc(CN2CCN(c3nc4ccccc4n4nnnc34)CC2)cc1`, the IC50 was > 50 µM (inactive).
As to `COc1cccc(NC(=O)Cc2sc(Nc3cc(C)cc(C)c3)nc2O)c1`, the negative logarithm of the IC50 (pIC50) was 4.74.
With `Cc1ccccc1OCCSc1nc2ccccc2n1CC(=O)NC1CC1`, the pIC50 is 4.68.
Same read-out and setting: the same measure for `COc1ccccc1-c1nc(Cn2nnc(C(=O)Nc3cc(C)cc(C)c3)c2N)c(C)o1`: 4.43; for `Cn1c(=O)[nH]c(=O)c2c1nc1n(CCc3ccccc3)c(-c3ccccc3)cn21`: 4.37.
In the case of `CC(=O)c1ccc(NC(=O)C[n+]2cc(-c3ccc(Cl)cc3)n3c2CCC3)cc1`, the pIC50 is 4.50.
In the case of `O=C(COc1ccc2c(-c3ccccc3)cc(=O)oc2c1)Nc1cccnc1`, the pIC50 was 5.59.
On to `CSc1cccc(NC(=O)CCc2ccc3nc(NC(C)=O)sc3c2)c1`, for which the IC50 was > 50 µM (inactive).
On to `COC(=O)c1cc(C#N)c(NCc2ccccc2)nc1C`, for which the pIC50 was 4.34.
For `Cc1nc2ccccc2nc1SCC(=O)Nc1ccc2c(c1)OCO2`, the pIC50 is 4.60.
The same measure, in the same setting: the result for `Cc1ccc(C)c(Cn2nnc3c(=O)[nH]c(C4CCN(S(=O)(=O)c5ccc(S(=O)(=O)NC6CC6)cc5)CC4)nc32)c1` reads 5.04; that for `COc1cccc(NC(=O)C2Cc3ccccc3N2C(=O)c2ccccc2)c1` (configuration not stated), 4.65.
Turning to `COc1cccc(NC(=O)C2Cn3ccnc3C3(CCN(C(C)=O)CC3)O2)c1` (configuration not stated), the IC50 was > 50 µM (inactive).
`Cc1cc(NC(=O)c2nnn(-c3ccccc3Cl)c2C)no1`: the negative logarithm of the IC50 (pIC50) was 5.83.
Take `O=C(Cn1nc2c3c4c(sc3ncn2c1=O)CCCCC4)Nc1ccc(Cl)cc1F`: the pIC50 is 5.74.
As to `Cc1ccc(Cl)cc1NC(=O)COC(=O)c1ccc2ccccc2n1`, the IC50 is > 50 µM (inactive).
